Test results reported in PubChem BioAssay (NCI).
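Exposure lasted 48 hours, with cells grown in 96-well plates and compounds tested at five concentrations. TGI denotes the concentration required for complete inhibition of growth.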

Legend:
Experiment in all cases: NCI-60 cell line screen, 48 h
786-0 renal = tested on: 786-0 renal
A549 NSCLC = tested on: A549 NSCLC
ACHN renal = tested on: ACHN renal
BT-549 breast = tested on: BT-549 breast
CAKI-1 renal = tested on: CAKI-1 renal
CCRF-CEM leukemia = tested on: CCRF-CEM leukemia
COLO 205 colon = tested on: COLO 205 colon
DU-145 prostate = tested on: DU-145 prostate
EKVX NSCLC = tested on: EKVX NSCLC
HCT-116 colon = tested on: HCT-116 colon
HCT-15 colon = tested on: HCT-15 colon
HL-60(TB) leukemia = tested on: HL-60(TB) leukemia
HOP-62 NSCLC = tested on: HOP-62 NSCLC
HOP-92 NSCLC = tested on: HOP-92 NSCLC
HS 578T breast = tested on: HS 578T breast
HT29 colon = tested on: HT29 colon
IGROV1 ovarian = tested on: IGROV1 ovarian
K-562 leukemia = tested on: K-562 leukemia
KM12 colon = tested on: KM12 colon
M14 melanoma = tested on: M14 melanoma
MALME-3M melanoma = tested on: MALME-3M melanoma
MDA-MB-231 breast = tested on: MDA-MB-231 breast
MDA-MB-435 = tested on: MDA-MB-435
MDA-N = tested on: MDA-N
MOLT-4 leukemia = tested on: MOLT-4 leukemia
NCI-H226 lung = tested on: NCI-H226 lung
NCI-H23 lung = tested on: NCI-H23 lung
NCI-H522 lung = tested on: NCI-H522 lung
NCI/ADR-RES ovarian = tested on: NCI/ADR-RES ovarian
OVCAR-3 ovarian = tested on: OVCAR-3 ovarian
OVCAR-4 ovarian = tested on: OVCAR-4 ovarian
OVCAR-5 ovarian = tested on: OVCAR-5 ovarian
OVCAR-8 ovarian = tested on: OVCAR-8 ovarian
PC-3 prostate = tested on: PC-3 prostate
RPMI-8226 leukemia = tested on: RPMI-8226 leukemia
RXF 393 renal = tested on: RXF 393 renal
SF-268 CNS = tested on: SF-268 CNS
SF-295 CNS = tested on: SF-295 CNS
SK-MEL-2 melanoma = tested on: SK-MEL-2 melanoma
SK-MEL-28 melanoma = tested on: SK-MEL-28 melanoma
SK-MEL-5 melanoma = tested on: SK-MEL-5 melanoma
SK-OV-3 ovarian = tested on: SK-OV-3 ovarian
SN12C renal = tested on: SN12C renal
SNB-19 CNS = tested on: SNB-19 CNS
SNB-75 CNS = tested on: SNB-75 CNS
SW-620 colon = tested on: SW-620 colon
T-47D breast = tested on: T-47D breast
TK-10 renal = tested on: TK-10 renal
U251 CNS = tested on: U251 CNS
UACC-257 melanoma = tested on: UACC-257 melanoma
UACC-62 melanoma = tested on: UACC-62 melanoma
UO-31 renal = tested on: UO-31 renal
A498 renal = tested on: A498 renal
HCC-2998 colon = tested on: HCC-2998 colon
LOX IMVI melanoma = tested on: LOX IMVI melanoma
MCF7 breast = tested on: MCF7 breast
NCI-H460 lung = tested on: NCI-H460 lung
SF-539 CNS = tested on: SF-539 CNS

Cc1cc(S(=O)(=O)O)ccc1N=Nc1c(O)ccc2ccccc12 was tested, and the TGI (786-0 renal) was greater than 100 µM, the TGI (A549 NSCLC) was greater than 100 µM and the TGI (ACHN renal) was greater than 100 µM. It also gave a TGI (BT-549 breast) greater than 100 µM, a TGI (CAKI-1 renal) greater than 100 µM and a TGI (CCRF-CEM leukemia) greater than 100 µM. For the same compound, the TGI (COLO 205 colon) was greater than 100 µM, the TGI (DU-145 prostate) was greater than 100 µM and the TGI (EKVX NSCLC) was greater than 100 µM. It also gave a TGI (HCT-116 colon) greater than 100 µM, a TGI (HCT-15 colon) greater than 100 µM and a TGI (HL-60(TB) leukemia) greater than 100 µM. The TGI (HOP-62 NSCLC) was greater than 100 µM, the TGI (HOP-92 NSCLC) was greater than 100 µM and the TGI (HS 578T breast) was greater than 100 µM. It also gave a TGI (HT29 colon) greater than 100 µM, a TGI (IGROV1 ovarian) greater than 100 µM and a TGI (K-562 leukemia) greater than 100 µM. For the same compound, the TGI (KM12 colon) was greater than 100 µM, the TGI (M14 melanoma) was greater than 100 µM and the TGI (MALME-3M melanoma) was greater than 100 µM. The TGI (MDA-MB-231 breast) was greater than 100 µM, the TGI (MDA-MB-435) was greater than 100 µM and the TGI (MDA-N) was greater than 100 µM. For the same compound, the TGI (MOLT-4 leukemia) was greater than 100 µM, the TGI (NCI-H226 lung) was greater than 100 µM and the TGI (NCI-H23 lung) was greater than 100 µM. The TGI (NCI-H522 lung) was greater than 100 µM, the TGI (NCI/ADR-RES ovarian) was greater than 100 µM and the TGI (OVCAR-3 ovarian) was greater than 100 µM. The TGI (OVCAR-4 ovarian) was greater than 100 µM, the TGI (OVCAR-5 ovarian) was greater than 100 µM and the TGI (OVCAR-8 ovarian) was greater than 100 µM. For the same compound, the TGI (PC-3 prostate) was greater than 100 µM, the TGI (RPMI-8226 leukemia) was greater than 100 µM and the TGI (RXF 393 renal) was greater than 100 µM. For the same compound, the TGI (SF-268 CNS) was greater than 100 µM, the TGI (SF-295 CNS) was greater than 100 µM and the TGI (SK-MEL-2 melanoma) was greater than 100 µM. For the same compound, the TGI (SK-MEL-28 melanoma) was greater than 100 µM, the TGI (SK-MEL-5 melanoma) was greater than 100 µM and the TGI (SK-OV-3 ovarian) was greater than 100 µM. The TGI (SN12C renal) was greater than 100 µM, the TGI (SNB-19 CNS) was greater than 100 µM and the TGI (SNB-75 CNS) was greater than 100 µM. The TGI (SW-620 colon) was greater than 100 µM, the TGI (T-47D breast) was greater than 100 µM and the TGI (TK-10 renal) was greater than 100 µM. For the same compound, the TGI (U251 CNS) was greater than 100 µM, the TGI (UACC-257 melanoma) was greater than 100 µM and the TGI (UACC-62 melanoma) was greater than 100 µM. For the same compound, the TGI (UO-31 renal) was greater than 100 µM.
COc1ccc(N=NC(=O)NC(CC(C)C)C(=O)NC(Cc2ccccc2)C(=O)O)cc1 (stereo unspecified) was tested, and the TGI (786-0 renal) was greater than 100 µM, the TGI (A498 renal) was greater than 100 µM and the TGI (A549 NSCLC) was greater than 100 µM. It also gave a TGI (ACHN renal) greater than 100 µM, a TGI (BT-549 breast) greater than 100 µM and a TGI (CAKI-1 renal) greater than 100 µM. The TGI (CCRF-CEM leukemia) was greater than 100 µM, the TGI (COLO 205 colon) was 5.36 µM and the TGI (DU-145 prostate) was greater than 100 µM. The TGI (EKVX NSCLC) was greater than 100 µM, the TGI (HCC-2998 colon) was greater than 100 µM and the TGI (HCT-116 colon) was greater than 100 µM. The TGI (HCT-15 colon) was greater than 100 µM, the TGI (HL-60(TB) leukemia) was 8.18 µM and the TGI (HOP-62 NSCLC) was greater than 100 µM. The TGI (HOP-92 NSCLC) was 97.5 µM, the TGI (HS 578T breast) was greater than 100 µM and the TGI (HT29 colon) was greater than 100 µM. For the same compound, the TGI (IGROV1 ovarian) was greater than 100 µM, the TGI (KM12 colon) was greater than 100 µM and the TGI (LOX IMVI melanoma) was 46.9 µM. For the same compound, the TGI (M14 melanoma) was greater than 100 µM, the TGI (MALME-3M melanoma) was greater than 100 µM and the TGI (MCF7 breast) was greater than 100 µM. The TGI (MDA-MB-435) was greater than 100 µM, the TGI (MDA-N) was greater than 100 µM and the TGI (MOLT-4 leukemia) was greater than 100 µM. For the same compound, the TGI (NCI-H226 lung) was greater than 100 µM, the TGI (NCI-H23 lung) was greater than 100 µM and the TGI (NCI-H460 lung) was greater than 100 µM. For the same compound, the TGI (NCI-H522 lung) was greater than 100 µM, the TGI (NCI/ADR-RES ovarian) was greater than 100 µM and the TGI (OVCAR-3 ovarian) was greater than 100 µM. For the same compound, the TGI (OVCAR-4 ovarian) was greater than 100 µM, the TGI (OVCAR-5 ovarian) was greater than 100 µM and the TGI (OVCAR-8 ovarian) was greater than 100 µM. For the same compound, the TGI (PC-3 prostate) was greater than 100 µM, the TGI (RPMI-8226 leukemia) was greater than 100 µM and the TGI (RXF 393 renal) was greater than 100 µM. For the same compound, the TGI (SF-268 CNS) was greater than 100 µM, the TGI (SF-295 CNS) was greater than 100 µM and the TGI (SF-539 CNS) was 3.22 µM. The TGI (SK-MEL-28 melanoma) was greater than 100 µM, the TGI (SK-MEL-5 melanoma) was 25.6 µM and the TGI (SN12C renal) was greater than 100 µM. It also gave a TGI (SNB-19 CNS) greater than 100 µM, a TGI (SNB-75 CNS) greater than 100 µM and a TGI (SW-620 colon) greater than 100 µM. It also gave a TGI (T-47D breast) greater than 100 µM, a TGI (TK-10 renal) greater than 100 µM and a TGI (U251 CNS) greater than 100 µM. It also gave a TGI (UACC-257 melanoma) of 45.2 µM, a TGI (UACC-62 melanoma) greater than 100 µM and a TGI (UO-31 renal) greater than 100 µM.
